Data: ChEMBL document CHEMBL2202983, “Structure-anti-leukemic activity relationship study of ortho-dihydroxycoumarins in U-937 cells: key role of the δ-lactone ring in determining differentiation-inducing potency and selective pro-apoptotic action” (Bioorg Med Chem, 2012)
Activity calls are given as the source filed them. The rule behind the calls is not given here.

Assays:
[1] = Pro-oxidant activity in 0.1 M potassium phosphate buffer at pH 7.4 assessed as increase of oxidation potential by cyclic voltammetry analysis; assay type: physicochemical
[2] = tested on: U-937; test: Induction of apoptosis in human U937 cells assessed as reduction of normal cells at 250 uM after 24 hrs by Annexin V-FITC double staining; assay type: functional, cell-based
[3] = tested on: U-937; test: Induction of apoptosis in human U937 cells assessed as activation of caspase-3 at 250 uM after 24 hrs by colorimetric assay in presence of caspase-8 inhibitor Z-LETD-FMK; assay type: functional, cell-based
[4] = tested on: U-937; test: Induction of apoptosis in human U937 cells assessed as PARP cleavage at 250 uM after 24 hrs by Western blot analysis; assay type: functional, cell-based
[5] = tested on: Jurkat; test: Cytotoxicity against human Jurkat at 250 uM after 48 hrs by trypan blue assay; assay type: functional, cell-based
[6] = tested on: U-937; test: Inhibition of clonogenic activity in human U937 cells assessed as reduction of colony formation in soft agar at 100 to 250 uM after 24 hrs using crystal violet staining; assay type: functional, cell-based
[7] = tested on: U-937; test: Induction of apoptosis in human U937 cells assessed as increase of caspase-9 cleavage at 250 uM after 12 hrs by Western blot analysis; assay type: functional, cell-based
[8] = tested on: Jurkat; test: Induction of apoptosis in human Jurkat cells assessed as activation of caspase-3-mediated PARP cleavage at 250 uM after 24 hrs by colorimetric assay; assay type: functional, cell-based
[9] = tested on: U-937; test: Induction of apoptosis in human U937 cells assessed as active 11 kDa fragment of caspase-3 at 250 uM after 24 hrs by Western blot analysis; assay type: functional, cell-based
[10] = tested on: U-937; test: Induction of cell differentiation in human U937 cells assessed as increase of CD88 expression at 50 uM after 72 hrs by FACS flow cytometer analysis; assay type: functional, cell-based
[11] = tested on: U-937; test: Induction of apoptosis in human U937 cells assessed as activation of caspase-3 at 250 uM after 24 hrs by colorimetric assay in presence of caspase-9 inhibitor Z-LEHD-FMK; assay type: functional, cell-based
[12] = tested on: U-937; test: Induction of apoptosis in human U937 cells assessed as increase of caspase-9 cleavage at 250 uM by Western blot analysis; assay type: functional, cell-based; details: TDE = time-dependent effect
[13] = tested on: U-937; test: Pro-oxidant activity in human U937 cells assessed as DCF-DA oxidation up to 6 hrs by fluorescence assay; assay type: functional, cell-based
[14] = tested on: U-937; test: Induction of apoptosis in human U937 cells assessed as phosphatidylserine expression in plasma membrane at 250 uM after 24 hrs by Annexin V-FITC double staining; assay type: functional, cell-based
[15] = tested on: U-937; test: Pro-oxidant activity in human U937 cells assessed as DCF-DA oxidation at 10 to 250 uM by fluorescence assay; assay type: functional, cell-based; details: TDE = time-dependent effect
[16] = tested on: U-937; test: Cytotoxicity against human U937 cells after 48 hrs by trypan blue assay; assay type: functional; details: U-937, 48 h
[17] = Induction of free radicals production in carbonate buffer at pH 9 by electron spin resonance analysis; assay type: physicochemical
[18] = tested on: U-937; test: Induction of apoptosis in human U937 cells assessed as activation of caspase-3 at 250 uM after 24 hrs by colorimetric assay; assay type: functional, cell-based
[19] = tested on: U-937; test: Induction of DNA damage in human U937 cells; assay type: functional, cell-based
[20] = tested on: PBMC; test: Cytotoxicity against human PBMC at 250 uM after 48 hrs by trypan blue assay; assay type: cell-based
[21] = tested on: U-937; test: Induction of cell differentiation in human U937 cells assessed as increase of CD11b and CD14 expression at 50 uM after 72 hrs by FACS flow cytometer analysis; assay type: functional, cell-based
[22] = tested on: U-937; test: Antiproliferative activity against human U937 cells assessed as incorporation of [3H]-methyl-thymidine after 12 hrs by scintillation counting; assay type: functional, cell-based
[23] = tested on: U-937; test: Cell cycle arrest in human U937 cells assessed as accumulation at sub-G0/G1 phase at 250 uM after 24 hrs using propidium iodide staining by FACS analysis; assay type: functional, cell-based
[24] = tested on: U-937; test: Induction of apoptosis in human U937 cells assessed as increase of caspase-8 cleavage at 250 uM after 12 hrs by Western blot analysis; assay type: functional, cell-based
[25] = Induction of free radicals production in RPMI 1640 medium at pH 7.4 by electron spin resonance analysis; assay type: physicochemical
[26] = tested on: U-937; test: Induction of cell differentiation in human U937 cells assessed as increase of rhC5a-induced response at 50 uM after 72 hrs by FACS flow cytometer analysis; assay type: functional, cell-based

Cc1cc(=O)oc2c(O)c(O)ccc12 [4-METHYLDAPHNETIN]
Activity [1]: Active
Activity [2]: Active
Activity [3]: Active
Activity [4]: Active
Activity [5]: Active
colony formation inhibition (active/not active) [6]: Active
Activity [7]: Active
Activity [8]: Active
Activity [9]: Active
Activity [10]: Active
Activity [11]: inactive
Activity [12]: tde
Activity [13]: Dose-dependent effect
Activity [14]: Active
Activity [15]: tde
CC50 [16]: 120 µM
Activity [17]: Active
Activity [18]: Active
Activity [19]: inactive
Activity [20]: Toxic
Activity [21]: Active
IC50 [22]: 83.2 µM
Activity [23]: Active
Activity [24]: inactive
Activity [25]: Active
Activity [26]: Active
